The assay is described as follows: Phosphate-binding assay in phosphate-binding solution (PBS) simulating small intestinal fluid (SIF). How it is done: Exemplary stock solutions suitable for phosphate-binding assays include the following: phosphate-binding solution (“PBS”) containing 10 mM KH2PO4, 30 mM Na2CO3, 80 mM NaCl, as described in Rosenbaum et al. Nephrol. Dial. Transplant. 12:961-964 (1997); acetate buffer (“AB”) solution containing 0.1N acetic acid, 0.025N sodium acetate, as described in Lowry & Lopez J. Biol. Chem. 162:421-428 (1946); ammonium molybdate (“AM”) solution containing 1% ammonium molybdate in 0.05N H2SO4, as described in Lowry & Lopez; ascorbic acid (“AA”) solution containing 1% ascorbic acid in H2O, as described in Lowry & Lopez.
In general, the phosphate-binding assay was conducted in 12×75 mm glass tubes. 4.0 mL PBS (which is a solution simulating SIF) and 20 mg putative phosphate binder were added to a glass tube and then mixed for 1 h at room temperature. 0.1 mL supernatant was pipetted from this tube to a new test tube. 3.0 mL AB, 0.3 mL AA and 0.3 mL AM solutions were added and O.D. were measured at 700 nm after 10 minutes.
The phosphate binding capacity was calculated as follows (mcg stands for micrograms): ((O.D. of sample×95)/O.D. of standard)×40=mcgPO4 left in solution ((3800−mcgPO4 left)×50)/1000=mgPO4 bound per gram of phosphate binder

[1] abbreviates: Table 3, 20 mg binder in 4.0 mL PBS, 1 h, room temperature.
The mark [2] stands for this setting: Table 4, calculated from Table 3 and % Mg (or % Ca).
[3] abbreviates: Table 2, 20 mg binder in 4.0 mL PBS, 1 h, room temperature.

Under setting [1], `NCC(=O)[O-].NCC(=O)[O-].[Mg+2]` [Mg glycinate, magnesium glycinate] showed a PO4 binding of 176 mg/g. Also, the “mg PO4 bound per g Mg or Ca in compound” value is reported as 1248 mg PO4 per g Mg or Ca under setting [2] and 1255 mg PO4 per g Mg (or Ca) (Table 5, additional results). The “mg PO4 bound per g compound” value by setting is: (Table 4, taken from Table 3) 176 mg PO4 per g compound; (Table 5, additional results) 177 mg PO4 per g compound.
For `O=C([O-])CC(O)C(=O)[O-].[Mg+2]` (stereo not shown) [Mg malate], the “mg PO4 bound per g compound” value (Table 5, additional results) is 29 mg PO4 per g compound.
On to `O=C([O-])CCC(=O)[O-].[Mg+2]` [Mg succinate], for which the PO4 binding under setting [1] is listed as 18 mg/g.
Still for that read-out and setting: for Mg stearate the value was 15 mg/g; for `O=C1O[C@H]([C@@H](O)CO)C(O)=C1[O-].O=C1O[C@H]([C@@H](O)CO)C(O)=C1[O-].[Mg+2]` [Mg ascorbate], 4 mg/g.
`O.O.O.O.O.O.O.O=S(=O)([O-])[O-].[Mg+2]` [MgSO4•7H2O] gave a PO4 binding under setting [3] of 19.0 mg/g.
As for magnesium carnitinate [Mg carnitinate], the PO4 binding under setting [1] is recorded as 169 mg/g.
Turning to `O=S(=O)([O-])[O-].[Mg+2]` [Mg sulfate], the PO4 binding under setting [1] is listed as 9 mg/g.
The same measure, in the same setting: under `O=C([O-])/C=C\C(=O)[O-].[Mg+2]` [Mg maleate] stands 15 mg/g.
In turn, `O=C([O-])[O-].[Ca+2]` [CaCO3, calcium carbonate, reference compound] gave a PO4 binding under setting [3] of 10.9 mg/g.
Under setting [1], `[Cl-].[Cl-].[Mg+2]` [Mg chloride, magnesium chloride] gave a PO4 binding of 4 mg/g.
As to `O=C[O-].O=C[O-].[Mg+2]` [Mg formate], the PO4 binding under setting [1] is reported as 6 mg/g.
On the same count and under the same terms, under `O=C([O-])C(O)C(O)C(=O)[O-].[Mg+2]` (stereo not shown) [Mg tartrate, magnesium tartrate] stands 28 mg/g.
On to `O=C([O-])[O-].[Mg+2]` [MgCO3, magnesium carbonate], for which the PO4 binding runs as follows: under setting [3], 19.0 mg/g; under setting [1], 22 mg/g.
With magnesium arginate [Mg arginate], the PO4 binding under setting [1] is 121 mg/g. In addition, the “mg PO4 bound per g Mg or Ca in compound” value runs as follows: under setting [2], 1862 mg PO4 per g Mg or Ca; (Table 5, additional results) 1815 mg PO4 per g Mg (or Ca). Also, the “mg PO4 bound per g compound” value is on record as 121 mg PO4 per g compound (Table 4, taken from Table 3) and 118 mg PO4 per g compound (Table 5, additional results).
Regarding `O=C([O-])/C=C/C(=O)[O-].[Mg+2]` [Mg fumarate], under setting [1], the PO4 binding is on record as 4 mg/g.
Regarding magnesium betainate [Mg betainate], under setting [1], the PO4 binding is given as 147 mg/g. Moreover, the “mg PO4 bound per g Mg or Ca in compound” value is given as 1547 mg PO4 per g Mg or Ca under setting [2] and 1484 mg PO4 per g Mg (or Ca) (Table 5, additional results). The “mg PO4 bound per g compound” value reads like this: (Table 4, taken from Table 3) 147 mg PO4 per g compound; (Table 5, additional results) 141 mg PO4 per g compound.
Turning to `O=C([O-])CC(O)(CC(=O)[O-])C(=O)[O-].O=C([O-])CC(O)(CC(=O)[O-])C(=O)[O-].[Mg+2].[Mg+2].[Mg+2]` [Mg citrate], the PO4 binding reads like this: under setting [3], 16.3 mg/g; under setting [1], 15 mg/g.
Under setting [1], `CC(O)C(=O)[O-].CC(O)C(=O)[O-].[Mg+2]` (stereo not shown) [Mg lactate] returned a PO4 binding of 15 mg/g.
On the same count and under the same terms, under `CC(=O)[O-].CC(=O)[O-].[Mg+2]` [Mg acetate] stands 4 mg/g.
The compound magnesium lysinate [Mg lysinate] displayed a PO4 binding under setting [1] of 150 mg/g. For the same compound, the “mg PO4 bound per g Mg or Ca in compound” value runs as follows: under setting [2], 1948 mg PO4 per g Mg or Ca; (Table 5, additional results) 1792 mg PO4 per g Mg (or Ca). The “mg PO4 bound per g compound” value is 150 mg PO4 per g compound (Table 4, taken from Table 3) and 138 mg PO4 per g compound (Table 5, additional results). For the same compound, for the setting “from Table 4”, the “phosphate bound by 1 gram of Mg in the salt relative to 1 gram of calcium in PhosLo (Ca acetate)” value is “almost three times as much”.
Under setting [1], `O=C([O-])CCCCC(=O)[O-].[Mg+2]` [Mg adipate] had a PO4 binding of 6 mg/g.
“magnesium aminobutyrate [Mg aminobutyrate]” showed a PO4 binding under setting [1] of 85 mg/g. Also, the “mg PO4 bound per g compound” value (Table 5, additional results) is listed as 76 mg PO4 per g compound.
Take `O=C([O-])c1cccnc1.O=C([O-])c1cccnc1.[Mg+2]` [Mg nicotinate]: under setting [1], the PO4 binding is reported as 4 mg/g.
Still for that read-out and setting: under `N[C@@H](CC(=O)[O-])C(=O)[O-].[Mg+2]` [Mg aspartate, magnesium aspartate] stands 50 mg/g.
In the case of `[O]=[Mg]` [MgO, magnesium oxide], the PO4 binding under setting [3] is reported as 184.0 mg/g and the PO4 binding result under setting [1] is given as “≧190 mg/g”. The “mg PO4 bound per g Mg or Ca in compound” value reads like this: under setting [2], 315 mg PO4 per g Mg or Ca; (Table 5, additional results) 310 mg PO4 per g Mg (or Ca). In addition, the “mg PO4 bound per g compound” value (Table 4, taken from Table 3) is recorded as 190 mg PO4 per g compound and the “mg PO4 bound per g compound” value (Table 5, additional results) is reported as 187 mg PO4 per g compound.
In the case of `O=C([O-])c1cc(=O)[nH]c(=O)[nH]1.O=C([O-])c1cc(=O)[nH]c(=O)[nH]1.[Mg+2]` [Mg orotate], under setting [1], the PO4 binding is reported as 20 mg/g.
Same read-out and setting: under `CCC(=O)[O-].CCC(=O)[O-].[Mg+2]` [Mg propionate, magnesium propionate] stands 59 mg/g.
The compound `[Mg+2].[OH-].[OH-]` [Mg(OH)2, magnesium hydroxide] came in with a PO4 binding under setting [3] of 176.2 mg/g; a PO4 binding under setting [1] of 182 mg/g; a PO4 binding (Table 6, without acid treatment) of 179.0 mg/g. In addition, the “mg PO4 bound per g Mg or Ca in compound” value under setting [2] is 436 mg PO4 per g Mg or Ca. Also, under “Table 4, taken from Table 3”, the “mg PO4 bound per g compound” value was 182 mg PO4 per g compound.
